What all share (assay type): in vivo
The test system of assay [1] is LEFCH (Leptochloa chinensis (L.) Nees, Chinese sprangletop). Kind of assay: Postemergence foliar-applied herbicidal mixtures, direct seeded rice, greenhouse (Example I). The source says: (§1) Seeds or nutlets of the desired test plant species were planted in a soil matrix prepared by mixing a loam or sandy loam soil (e.g., 28.6 percent silt, 18.8 percent clay, and 52.6 percent sand, with a pH of about 5.8 and an organic matter content of about 1.8 percent) and calcareous grit in an 80 to 20 ratio. The soil matrix was contained in plastic pots with a volume of 1 quart and a surface area of 83.6 square centimeters (cm^2). When required to ensure good germination and healthy plants, a fungicide treatment and/or other chemical or physical treatment was applied. The plants were grown for 8-22 days in a greenhouse with an approximate 14 h photoperiod which was maintained at about 29° C. during the day and about 26° C. during the night. Nutrients (Peters Excel® 15-5-15 5-Ca 2-Mg and iron chelate) were applied in the irrigation solution as needed and water was added on a regular basis. Supplemental lighting was provided with overhead metal halide 1000-Watt lamps as necessary. The plants were employed for testing when they reached the first through fourth true leaf stage.
(§2) Treatments consisted of the acid or esters of 4-amino-3-chloro-5-fluoro-6-(4-chloro-2-fluoro-3-methoxy-phenyl)pyridine-2-carboxylic acid (Compound A), each formulated as an SC (suspension concentrate), and various herbicidal components alone and in combination. Forms of compound A were applied on an acid equivalent basis.
(§3) Other herbicidal components were applied on an active ingredient basis and included acetolactate synthase (ALS)-inhibiting herbicides (sulfonamide chemical class) penoxsulam formulated as Grasp® SC, diclosulam formulated as Strongarm®, and cloransulam-methyl formulated as FirstRate®, flumetsulam formulated as Flumetsulam WG, and metosulam formulated as Eclipse®.
(§4) Treatment requirements were calculated based upon the rates being tested, the concentration of active ingredient or acid equivalent in the formulation, and a 12 mL application volume at a rate of 187 L/ha.
(§5) For treatments comprised of formulated compounds, measured amounts of compounds were placed individually in 25 mL glass vials and diluted in a volume of 1.25% (v/v) Agri-Dex® crop oil concentrated to obtain 12× stock solutions. […] Application solutions were prepared by adding an appropriate amount of each stock solution (e.g., 1 mL) and diluted to the appropriate final concentrations with the addition of 10 mL of an aqueous mixture of 1.25% (v/v) crop oil concentrate so that the final spray solutions contained 1.25+/−0.05% (v/v) crop oil concentrate.
(§6) All stock solutions and applications solutions were visually inspected for compound compatibility prior to application. Spray solutions were applied to the plant material with an overhead Mandel track sprayer equipped with an 8002E nozzle calibrated to deliver 187 L/ha over an application area of 0.503 m^2 at a spray height of 18 to 20 inches (46 to 50 cm) above average plant canopy height. Control plants were sprayed in the same manner with the solvent blank.
(§7) The treated plants and control plants were placed in a greenhouse as described above and watered by sub-irrigation to prevent wash-off of the test compounds. After approximately 3 weeks, the condition of the test plants as compared with that of the untreated plants was determined visually and scored on a scale of 0 to 100 percent where 0 corresponds to no injury or growth inhibition and 100 corresponds to complete kill.
(§8) Colby's equation was used to determine the herbicidal effects expected from the mixtures (Colby, S. R. 1967. Calculation of the synergistic and antagonistic response of herbicide combinations. Weeds 15:20-22.).
(§9) The following equation was used to calculate the expected activity of mixtures containing two active ingredients, A and B: Expected=A+B−(A×B/100)

The subject of assay [2] is CYPRO (Cyperus rotundus L., purple nutsedge). The experiment in a line: In-water applied herbicidal mixtures, transplanted paddy rice, greenhouse (Example II). Here is the method:
(§10) Weed seeds or nutlets of the desired test plant species were planted in puddled soil (mud) prepared by mixing a shredded, non-sterilized mineral soil (50.5 percent silt, 25.5 percent clay, and 24 percent sand, with a pH of about 7.6 and an organic matter content of about 2.9 percent) and water at a 1:1 volumetric ratio. The prepared mud was dispensed in 365 mL aliquots into 16-ounce (oz.) non-perforated plastic pots with a surface area of 86.59 square centimeters (cm^2) leaving a headspace of 3 centimeters in each pot. Mud was allowed to dry overnight prior to planting or transplanting. Rice seeds were planted in Sun Gro MetroMix® 306 planting mixture, which typically has a pH of 6.0 to 6.8 and an organic matter content of about 30 percent, in plastic plug trays. Seedlings at the second or third leaf stage of growth were transplanted into 840 mL of mud contained in 32-oz. non-perforated plastic pots with a surface area of 86.59 cm^2 4 days prior to herbicide application. The paddy was created by filling the headspace of the pots with 2.5 to 3 cm of water. When required to ensure good germination and healthy plants, a fungicide treatment and/or other chemical or physical treatment was applied. The plants were grown for 4-22 days in a greenhouse with an approximate 14 h photoperiod which was maintained at about 29′C during the day and about 26° C. during the night. Nutrients were added as Osmocote® (19:6:12, N:P:K+minor nutrients) at 2 g per 16-oz. pot and 4 g per 32-oz. pot. Water was added on a regular basis to maintain the paddy flood, and supplemental lighting was provided with overhead metal halide 1000-Watt lamps as necessary. The plants were employed for testing when they reached the first through fourth true leaf stage.
(§11) Treatments consisted of the acid or esters of 4-amino-3-chloro-5-fluoro-6-(4-chloro-2-fluoro-3-methoxy-phenyl)pyridine-2-carboxylic acid (compound A) each formulated as an SC and various herbicidal components alone and in combination. Forms of compound A were applied on an acid equivalent basis.
(§12) Other herbicidal components were applied on an active ingredient basis and included acetolactate synthase (ALS)-inhibiting herbicides (sulfonamide chemical class) penoxsulam formulated as Grasp® SC (GF-443), diclosulam formulated as Strongarm®, and cloransulam-methyl formulated as FirstRate®.
(§13) Treatment requirements for each compound or herbicidal component were calculated based upon the rates being tested, the concentration of active ingredient or acid equivalent in the formulation, an application volume of 2 mL per component per pot, and an application area of 86.59 cm^2 per pot.
(§14) For formulated compounds, a measured amount was placed in an individual 100 or 200 mL glass vial and was dissolved in a volume of 1.25% (v/v) Agri-Dex® crop oil concentrate to obtain each application solution.
(§15) Applications were made by injecting with a pipetter appropriate amounts of the application solutions, individually and sequentially, into the aqueous layer of the paddy. Control plants were treated in the same manner with the solvent blank. Applications were made so that all treated plant material received the same concentrations of acetone and crop oil concentrate.
(§16) The treated plants and control plants were placed in a greenhouse as described above and water was added as needed to maintain a paddy flood. After approximately 3 weeks the condition of the test plants as compared with that of the untreated plants was determined visually and scored on a scale of 0 to 100 percent where 0 corresponds to no injury or growth inhibition and 100 corresponds to complete kill.
as §8, §9

The subject of assay [3] is ECHCG (Echinochloa crusgalli (L.) Beauv., barnyardgrass). The description is as above. The procedure: as §10, §11, §12, §13, §14, §15, §16, §8, §9
The subject of assay [4] is DIGSA (Digitaria sanguinalis (L.) Scop., large crabgrass). Kind of assay: Postemergence foliar-applied herbicidal mixtures, direct seeded rice, greenhouse (Example I).
Source text: as §1, §2, §3, §4, §5, §6, §7, §8, §9

The subject of assay [5] is CYPIR (Cyperus iria L., rice flatsedge). The description is as above.
Source text: as §1, §2, §3, §4, §5, §6, §7, §8, §9

In assay [6] the test system is FIMMI (Fimbristylis miliacea (L.) Vahl, globe fringerush). Kind of assay: In-water applied herbicidal mixtures, transplanted paddy rice, greenhouse (Example II). Here is the method:
as §10, §11, §12, §13, §14, §15, §16, §8, §9

Assay [7] concerns CYPDI (Cyperus difformis L., smallflower umbrella sedge). The description is as above. Here is the method: as §10, §11, §12, §13, §14, §15, §16, §8, §9
In assay [8] the test system is IPOHE (Ipomoea hederacea Jacq., ivyleaf morningglory). The experiment in a line: Postemergence foliar-applied herbicidal mixtures, direct seeded rice, greenhouse (Example I).
Source text: as §1, §2, §3, §4, §5, §6, §7, §8, §9

Assay [9] has as its system LEFCH (Leptochloa chinensis (L.) Nees, Chinese sprangletop). The experiment in a line: In-water applied herbicidal mixtures, transplanted paddy rice, greenhouse (Example II). The procedure:
as §10, §11, §12, §13, §14, §15, §16, §8, §9

Consider three compounds from patent US8906825B2, “Herbicidal compositions comprising 4-amino-3-chloro-5-fluoro-6-(4-chloro-2-fluoro-3-methoxyphenyl) pyridine-2-carboxylic acid or a derivative thereof and triazolopyrimidine sulfonamides” (Dow AgroSciences LLC, priority 2012, dated 2014).

As to `CCOc1nc(F)cc2nc(S(=O)(=O)Nc3c(Cl)cccc3Cl)nn12` [Diclosulam, N-(2,6-dichlorophenyl)-5-ethoxy-7-fluoro[1,2,4]triazolo[1,5-c]pyrimidine-2-sulfonamide, reference compound], the “Visual Weed Control (%) - 20 DAA LEFCH Obs” value in [1] (Diclosulam 6.62 gai/ha, Table 4) is listed as 0%; in assay [1] (Diclosulam 6.62 gai/ha, Table 5), 0%; in assay [1] (Diclosulam 13.25 gai/ha, Table 5), 20%. Also, the “Visual Weed Control (%) - 21 DAA CYPRO Obs” value in [2] (Diclosulam 6.62 gai/ha) and in assay [2] (Diclosulam 13.25 gai/ha) was 80% in each case. In addition, the “Visual Weed Control (%) - 21 DAA ECHCG Obs” value in [3] (Diclosulam 6.62 gai/ha) came out at 70%.

Take `CCOc1nc(F)cc2nc(S(=O)(=O)Nc3c(Cl)cccc3C(=O)OC)nn12` [Cloransulam-methyl, methyl 3-chloro-2-[[(5-ethoxy-7-fluoro[1,2,4]triazolo[1,5-c]pyrimidin-2-yl)sulfonyl]amino]benzoate, reference compound]: the “Visual Weed Control (%) - 20 DAA DIGSA Obs” value in assay [4] (Cloransulam-methyl 2.19 gai/ha) is recorded as 10%. For the same compound, the “Visual Weed Control (%) - 20 DAA CYPIR Obs” value in [5] (Cloransulam-methyl 4.38 gai/ha) turned out to be 70%; in assay [5] (Cloransulam-methyl 8.75 gai/ha), 85%. Also, the “Visual Weed Control (%) - 20 DAA LEFCH Obs” value was 0% in [1] (Cloransulam-methyl 2.19 gai/ha, Table 7); 0% in assay [1] (Cloransulam-methyl 4.38 gai/ha, Table 6); 0% in assay [1] (Cloransulam-methyl 4.38 gai/ha, Table 7); 0% in [1] (Cloransulam-methyl 8.75 gai/ha, Table 6). The “Visual Weed Control (%) - 21 DAA FIMMI Obs” value was determined as 40% in assay [6] (Cloransulam-methyl 17.5 gai/ha, Table 14); 40% in [6] (Cloransulam-methyl 17.5 gai/ha, Table 15); 60% in assay [6] (Cloransulam-methyl 35 gai/ha, Table 14); 60% in assay [6] (Cloransulam-methyl 35 gai/ha, Table 15). In addition, the “Visual Weed Control (%) - 21 DAA CYPDI Obs” value in assay [7] (Cloransulam-methyl 17.5 gai/ha) is reported as 40%; in [7] (Cloransulam-methyl 35 gai/ha), 80%. Moreover, the “Visual Weed Control (%) - 22 DAA ECHCG Obs” value in assay [3] (Cloransulam-methyl 17.5 gai/ha) was 50%.

With `COc1c(Cl)ccc(-c2nc(C(=O)O)c(Cl)c(N)c2F)c1F` [Compound A Acid, 4-amino-3-chloro-5-fluoro-6-(4-chloro-2-fluoro-3-methoxy-phenyl)pyridine-2-carboxylic acid], the “Visual Weed Control (%) - 27 DAA IPOHE Obs” value in assay [8] (Compound A Acid 4.38 gae/ha), in assay [8] (Compound A Acid 8.75 gae/ha) and in assay [8] (Compound A Acid 17.5 gae/ha) was 10% each time. In addition, the “Visual Weed Control (%) - 20 DAA DIGSA Obs” value in assay [4] (Compound A Acid 5.3 gae/ha) is recorded as 10%; in assay [4] (Compound A Acid 10.6 gae/ha) it was 20%; in assay [4] (Compound A Acid 21.2 gae/ha) it was 20%. In addition, the “Visual Weed Control (%) - 20 DAA LEFCH Obs” value in assay [1] (Compound A Acid 4.38 gae/ha) is listed as 15%; in assay [1] (Compound A Acid 5.3 gae/ha) it was 0%; in assay [1] (Compound A Acid 8.75 gae/ha) it was 30%; in assay [1] (Compound A Acid 10.6 gae/ha), 10%; in assay [1] (Compound A Acid 17.5 gae/ha) it was 50%; in assay [1] (Compound A Acid 21.2 gae/ha), 15%. In addition, in [1] (Compound A Acid 19.4 gae/ha), the “Visual Weed Control (%) - 19 DAA LEFCH Obs” value worked out at 5%. The “Visual Weed Control (%) - 21 DAA FIMMI Obs” value in [6] (Compound A Acid 16 gae/ha) and in assay [6] (Compound A Acid 32 gae/ha) was 20% each time. Moreover, the “Visual Weed Control (%) - 21 DAA CYPDI Obs” value in [7] (Compound A Acid 16 gae/ha) is recorded as 30%. Further, the “Visual Weed Control (%) - 21 DAA CYPRO Obs” value in assay [2] (Compound A Acid 8.75 gae/ha) was found to be 0%. In addition, the results for the “Visual Weed Control (%) - 22 DAA ECHCG Obs” value in [3] (Compound A Acid 16 gae/ha) and in assay [3] (Compound A Acid 32 gae/ha) were 20% and 25%, respectively. Besides, the “Visual Weed Control (%) - 25 DAA LEFCH Obs” value in assay [9] (Compound A Acid 8.75 gae/ha) was determined as 50%; in [9] (Compound A Acid 17.5 gae/ha), 50%; in assay [9] (Compound A Acid 35 gae/ha), 85%.
